Results taken from patent publication US6020363A, “Isocoumarin derivatives and use thereof in drugs” (Mercian Corporation, priority 1998, dated 2000).

Columns and labels:
Acute toxicity in mice = format: in vivo, DBA/1J mice; conditions: 100 mg/kg; for evidence of toxicity, single administration: mouse, in vivo; for mortality, single administration: oral or intraperitoneal, eight DBA/1J mice
Protocol: (§1) Among the compounds in accordance with the present invention, each of Compounds 1, 2 and 3 was orally or intraperitoneally administered to eight DBA/1J mice in a dose of 100 mg/kg body weight. […] This seems to indicate that the compounds used in the present invention have no or very little, if any, acute toxicity. Moreover, Compound 1, in a dose of 100 mg/kg body weight, or Compound 3, in a dose of 30 mg/kg body weight, was orally administered to eight mice of the aforesaid strain for 40 days. […] Thus, the compounds of the present invention have little subacute toxicity. Since other compounds in accordance with the present invention are estimated to have similar properties, the compounds of the present invention can be used very safely.

[1] = system: collagen-induced arthritis; assay: Inhibitory Effect on Collagen-Induced Arthritis (No. 1), sole thickness; format: in vivo, DBA/1J mice; conditions: mean ± SD
Protocol: (§2) The preventive effect on the onset of collagen-induced arthritis was tested by using DBA/1J mice in groups of 5-8. Specifically, type II collagen was mixed with an equal volume of Freund's complete adjuvant and emulsified to prepare a 1 mg/ml emulsion. Mice were sensitized by administering 0.1 ml of this emulsion intracutaneously to the root of the tail. After 21 days, the mice were additionally immunized by emulsifying type II collagen in the same manner as before and administering 0.1 ml of the emulsion intraperitoneally so as to induce arthritis.
Starting from the day of the first sensitization with type II collagen, Compound 1 was orally administered, once a day, for 43 days in a dose of 10 or 30 mg/kg body weight. Similarly, each of Compounds 2 and 3 was intraperitoneally administered, once a day, for 43 days in a dose of 1 or 10 mg/kg body weight. Their inhibitory effect on collagen-induced arthritis was evaluated by measuring the sole thicknesses of the hind legs periodically with digital vernier calipers.

[2] = system: collagen-induced arthritis; conditions: oral administration, mice; cited from earlier work
[3] = system: neogenesis of tumor vessels induced by the transplanted mouse tumor S180; assay: Inhibitory Effect on Vascularization Using the Mouse Back Subcutaneous Transplantation Method; format: in vivo, male ICR mouse; conditions: for Vascularization score: oral 100 mg/kg, 5 days, mean ± SE
Protocol: The inhibitory effect of Compounds 1 and 3 in accordance with the present invention on the neogenesis of tumor vessels induced by the transplanted mouse tumor S180 was tested using the mouse back subcutaneous transplantation method. Specifically, 1×10^7 S180 cells were injected into a chamber formed by attaching a Millipore filter having a pore size of 0.45 μm to either side of a Millipore ring. After the injection hole was stopped up, this chamber was transplanted into an air sac formed beneath the skin of the back of a male ICR mouse (9-10 weeks old). Starting from the day of transplantation, a test compound or a solvent control comprising a 0.5% carboxymethylcellulose solution was orally administered for 5 days. After the skin was separated on the fifth day of transplantation, an O-ring of 10 mm internal diameter having the same shape as the Millipore ring was placed on the part of the skin which had been in contact with the chamber, observed under a stereoscopic microscope, and photographed.
In the photographs so taken, the degree of vascularization was rated 0, 1, 2 or 3 according to the number of 3 mm or longer tortuous blood vessels characteristic of tumoral vessels, and scored on the following basis.
0: No tumoral vessel was observed.
1: One tumoral vessel was observed.
2: Two tumoral vessels were observed.
3: Three or more tumoral vessels were observed.

[4] = system: various animal cells and human cancer cells; conditions: cited from earlier work
adjuvant arthritis = conditions: oral administration, rats; cited from earlier work
[5] = system: collagen-induced arthritis; assay: Inhibitory Effect on Collagen-Induced Arthritis (No. 2), arthritis score; format: in vivo, DBA/1J mice; conditions: oral
Protocol: as §2
Animals having arthritis induced in the same manner as described above were used in groups of 7-8. Compound 3 was orally administered, once a day, for 21 days following the additional immunization in a dose of 1, 3 or 10 mg/kg body weight. For comparative purposes, MI43 was similarly administered to another group in a dose of 30 mg/kg body weight. According to the degree of rubor, swelling and rigidity in each of the forelegs and hind legs of the experimental animals, their inhibitory effect on collagen-induced arthritis was evaluated on the following basis by a score ranging from 0 to 4 (with a maximum value of 16).
0: No symptom is observed.
2: Two or more small joints, or a relatively large joint such as that of the wrist or ankle, show rubor or swelling.
4: The total swelling of the hand or foot reaches its peak and, moreover, is accompanied by joint rigidity.

[6] = Levels of Orally Administered Test Compounds in Blood Plasma; format: in vivo, male ICR mice
Protocol: Each of Compound 3 and MI43 was orally administered to fasted male ICR mice (weighing 18-21 g) in a dose of 25 mg/kg. Blood samples were collected from the mice 5 minutes, 30 minutes, 4 hours, 8 hours and 24 hours after administration (3 mice per point for Compound 3 and 5 mice per point for MI43). These blood samples were centrifuged to obtain blood plasma samples. Each of the blood plasma samples was subjected to the following pretreatment and then analyzed by high-performance liquid chromatography (HPLC). 1.8 ml of a saturated aqueous solution of ammonium sulfate and 1.0 ml of methanol were added to and mixed with 0.2 ml of the blood plasma sample. This mixture was shaken with 3.5 ml of ethyl acetate. After this mixture was centrifuged, the ethyl acetate layer was separated. Moreover, the aqueous layer was shaken with 3.5 ml of ethyl acetate, followed by centrifugation. The ethyl acetate layer thus obtained was combined with the previously separated ethyl acetate layer, and this mixture was evaporated to dryness under reduced pressure. The resulting residue was redissolved in 0.2 ml of a 50% aqueous solution of acetonitrile and used as a sample for HPLC.
The analytical conditions for HPLC (using the CCTD system manufactured by Toso Co., Ltd.) were as follows: A YMC A-312 column (ODS 6×150 mm; manufactured by YMC Co., Ltd.) was used as the column. As the mobile phase, a 60:40 mixture of acetonitrile and 0.1% aqueous TFA was used for Compound 3, and a 40:60 mixture of acetonitrile and 0.1% aqueous TFA was used for MI43. The rest compound was eluted at a flow velocity of 1.0 ml/min and detected by UV light at 244 nm.

carrageenin edema = assay: Effect on Carrageenin Edema; format: in vivo, ICR mice
Protocol: The effect on carrageenin edema was tested by using ICR mice in groups of 6-7. Specifically, Compound 3 was orally administered thereto in a dose of 3 or 30 mg/kg body weight. As a positive control drug, indomethacin was similarly administered in a dose of 20 mg/kg body weight. After 30 minutes, 25 μl of a 1% carrageenin solution was subcutaneously injected into the sole of the right hind leg. Two hours after the administration of carrageenin, the thickness of the sole was measured with digital vernier calipers, and the degree of edema (%) based on the thickness measured before administration was calculated.

[7] = set-up: species or system DBA/1J mice; conditions: mouse, in vivo, po, 100 mg/kg
Protocol: as §1

COc1cc(O)c2c(=O)oc(CC(=O)O)cc2c1 [Compound 2, (8-hydroxy-6-methoxy-1-oxo-1H-2-benzopyran-3-yl)acetic Acid]
evidence of toxicity, single administration (Acute toxicity in mice): no animal showed evidences of toxicity | mortality, single administration (Acute toxicity in mice): No animal died | Sole thickness (sum of left and right, mm), after 37 days ([1]; intraperitoneal, 1 mg/kg/day, *p < 0.05 vs control (8.02 ± 0.82)): 6.81 ± 1.07 mm | Sole thickness (sum of left and right, mm), after 37 days ([1]; intraperitoneal, 10 mg/kg/day, *p < 0.05 vs control (8.02 ± 0.82)): 7.19 ± 0.40 mm

COc1cc(O)c2c(=O)oc(CO)cc2c1 [MI43, 3-hydroxymethyl-6-methoxy-8-hydroxy-1H-2-benzopyran-1-one, reference compound]
inhibition of collagen-induced arthritis (in words) [2]: significantly inhibit adjuvant arthritis in rats and collagen-induced arthritis in mice | Vascularization score ([3]; n = 11, control 2.93 ± 0.07, Table 4): 1.09 ± 0.39 | growth-inhibiting activity (in words) [4]: growth-inhibiting activity against various animal cells and human cancer cells | inhibition of adjuvant arthritis (in words) (adjuvant arthritis): significantly inhibit adjuvant arthritis in rats | reduction in arthritis score (in words) ([5]; 30 mg/kg body weight): no significant reduction in arthritis score | Score after 37 days ([5]; 30 mg/kg/day, mean ± SE, maximum 16, control 9.25 ± 1.35): 5.29 ± 1.77 | concentration at 5 min ([6]; mouse, plasma, oral 25 mg/kg, 5 min, read-out: Concentration of unchanged M143 in blood plasma, mean): 811 ng/mL | concentration at 0.5 h ([6]; mouse, plasma, oral 25 mg/kg, 30 min, read-out: Concentration of unchanged M143 in blood plasma, mean): 155 ng/mL | concentration at 4 h ([6]; mouse, plasma, oral 25 mg/kg, 4 hr, read-out: Concentration of unchanged M143 in blood plasma, mean): 48 ng/mL | Tmax ([6]; mouse, plasma, unchanged compound, oral 25 mg/kg, read-out: time of peak / highest plasma level after administration (converted)): 5 min | number of metabolites detected in plasma ([6]; oral 25 mg/kg): 5 | plasma concentration course after 5 minutes (in words) ([6]; unchanged MI43, oral 25 mg/kg): decreased sharply

COc1ccc2c(c1)c(CC(=O)O)c(C)n2C(=O)c1ccc(Cl)cc1 [Indomethacin, reference compound]
effect on carrageenin edema (in words) (carrageenin edema; 20 mg/kg): significan inhibitory effect | Degree of edema (%) (carrageenin edema; oral 20 mg/kg, 2 h after carrageenin, mean ± SE, **p < 0.01 vs control (47.4 ± 2.8)): 18.5 ± 3.5%

COc1cc(O)c2c(=O)oc(C(=O)O)cc2c1 [Compound 1, 8-hydroxy-6-methoxy-1-oxo-1H-2-benzopyran-3-carboxylic Acid]
evidence of toxicity, single administration (Acute toxicity in mice): no animal showed evidences of toxicity | mortality, single administration (Acute toxicity in mice): No animal died | Sole thickness (sum of left and right, mm), after 37 days ([1]; oral, 10 mg/kg/day, **p < 0.01 vs control (8.02 ± 0.82)): 6.44 ± 0.40 mm | Sole thickness (sum of left and right, mm), after 37 days ([1]; oral, 30 mg/kg/day, **p < 0.01 vs control (8.02 ± 0.82)): 6.12 ± 0.22 mm | Vascularization score ([3]; n = 9, p < 0.05 vs control (3.00 ± 0.00), Table 3): 1.67 ± 0.53 | inhibition of vascularization induced by tumor cell S180 (in words) ([3]; oral, 100 mg/kg body weight): significantly inhibited vascularization | evidence of toxicity, 40 days [7]: no animal showed evidences of toxicity | mortality, 40 days [7]: No animal died
